Tested on: arachidonic acid-induced ear swelling
Test: topical arachidonic acid-induced ear swelling model in mice
Format: in vivo
Details: for % Inhibition of ear swelling: male ICR mice, topical application 30 min before and 15 min after arachidonic acid, measured at 90 minutes after arachidonic acid, indomethacin 14 mM (0.1 mg/20 μL), test compound 375 mM (1.1 mg/20 μL), relative to vehicle
Method: 4-Methylsulfonyl-2-butenenitrile, prepared from Example 1, was used in this experiment. The test compound, indomethacin (positive control), and vehicle were evaluated for anti-inflammatory activity in a topical arachidonic acid-induced ear swelling model in mice. Male ICR mice weighing 22±2 g were used and randomly divided; the test compound and vehicle control had 10 mice, and indomethacin had 5 mice. Arachidonic Acid (0.5 mg in 20 μl of acetone:ethanol/1:1) was applied topically to the anterior and posterior surfaces of the right ear of each mouse. Test substances and vehicle, as listed in Table 2 were similarly applied 30 min before and 15 min after arachidonic acid application. The thickness of the right ear and the left ear was measured and the difference calculated as an indication of the inflammation in the right ear. Ear swelling was measured by a Dyer model micrometer gauge at 60 and 90 minutes after arachidonic acid application as an index of inflammation. Percent inhibition was calculated according to the formula: Ic−It/Ic×100, where Ic and It refers to increase of ear thickness (mm) in control and treated mice, respectively. ANOVA and Dunnett's test were employed to ascertain significant difference between vehicle control and treated groups. Significance is set at P<0.05 level.

Compound: CS(=O)(=O)C/C=C/C#N [4-methylsulfonyl-2-butenenitrile]
- anti-inflammatory activity in the mouse ear swelling model (in words) (applied topically, inflammation induced by arachidonic acid): anti-inflammatory
- % Inhibition of ear swelling: 22%

Compound: COc1ccc2c(c1)c(CC(=O)O)c(C)n2C(=O)c1ccc(Cl)cc1 [Indomethacin, indomethacin, reference compound]
- % Inhibition of ear swelling: 58%
